Molecules are shown by their SMILES.

The assay deals with T1, AM2 receptor (1321N1 cells transfected with CALCRL+RAMP3) (Homo sapiens, UniProt O60896+Q16602).
T1 construct: host or cells: 1321N1 cells
T1 sequence (Q16602 23-461): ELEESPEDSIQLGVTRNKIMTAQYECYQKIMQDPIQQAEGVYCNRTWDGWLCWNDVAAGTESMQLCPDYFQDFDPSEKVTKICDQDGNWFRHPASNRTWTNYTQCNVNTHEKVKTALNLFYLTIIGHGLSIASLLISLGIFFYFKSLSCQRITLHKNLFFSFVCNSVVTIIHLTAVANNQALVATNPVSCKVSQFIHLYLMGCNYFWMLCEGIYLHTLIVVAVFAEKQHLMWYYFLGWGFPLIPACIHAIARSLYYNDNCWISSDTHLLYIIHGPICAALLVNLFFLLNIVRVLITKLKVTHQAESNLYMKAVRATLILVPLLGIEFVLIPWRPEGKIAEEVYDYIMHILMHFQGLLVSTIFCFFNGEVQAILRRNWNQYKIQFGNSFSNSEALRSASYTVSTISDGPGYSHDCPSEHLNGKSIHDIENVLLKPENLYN
T1 sequence (O60896 24-148): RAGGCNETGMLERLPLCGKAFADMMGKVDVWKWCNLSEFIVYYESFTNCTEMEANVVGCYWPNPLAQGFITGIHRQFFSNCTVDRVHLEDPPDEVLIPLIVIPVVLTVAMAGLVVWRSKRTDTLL
Briefly: AM2 receptor inhibition, LANCE cAMP agonist-antagonist competition assay. Type of assay: cell-based. The settings on record: inhibition of AM induced cAMP activation, read-out: AM2 D2 protocol: pIC50 (converted). The method in brief: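 1321N1 cells co-expressing CALCRL and RAMP3 (2500/well) were preincubated with compound for 30 min at room temperature, then stimulated with adrenomedullin at its EC50 dose for 15 min in HBSS/HEPES/BSA buffer, pH 7.4. cAMP was measured by LANCE TR-FRET and normalised to forskolin (100%) and vehicle (0%) controls.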
On the technique in general: Time-resolved FRET reads energy transfer from a long-lived donor to a nearby acceptor.
With `CNCc1ccccc1CN(CC(=O)Nc1ccc2c(c1)CC1(C2)C(=O)Nc2ncccc21)C(=O)C1(C)CCN(C(=O)N2CCCC2)CC1` (stereo not shown) [Example 51, 4-Methyl-N-[[2-(methylaminomethyl)phenyl]methyl]-N-[2-oxo-2-[(2-oxospiro[1H-pyrrolo[2,3-b]pyridine-3,2′-indane]-5′-yl)amino]ethyl]-1-(pyrrolidine-1-carbonyl)piperidine-4-carboxamide], the IC50 is 2.34 nM. To `CNCc1ccccc1CN(CC(=O)Nc1ccc2c(c1)C[C@@]1(C2)C(=O)Nc2ncccc21)C(=O)C1(C)CCN(C(=O)N(C)C)CC1` [Example 53, (R)—N1,N1,4-Trimethyl-N4-(2-((methylamino)methyl)benzyl)-N4-(2-oxo-2-((2′-oxo-1,1′,2′,3-tetrahydrospiro[indene-2,3′-pyrrolo[2,3-b]pyridin]-5-yl)amino)ethyl)piperidine-1,4-dicarboxamide] belongs 14.1 nM. To `CNCc1ccccc1CN(CC(=O)Nc1ccc2c(c1)C[C@@]1(C2)C(=O)Nc2ncccc21)C(=O)C1(C)CCN(C(=O)N2CCC2)CC1` [Example 54, (R)-1-(Azetidine-1-carbonyl)-4-methyl-N-(2-((methylamino)methyl)benzyl)-N-(2-oxo-2-((2′-oxo-1,1′,2′,3-tetrahydrospiro[indene-2,3′-pyrrolo[2,3-b]pyridin]-5-yl)amino)ethyl)piperidine-4-carboxamide] belongs 3.8 nM. To `CNCc1ccccc1CN(CC(=O)Nc1ccc2c(c1)C[C@@]1(C2)C(=O)Nc2ncccc21)C(=O)C1(C)CCN(C(=O)N2CCNCC2)CC1` [Example 56, (R)-4-Methyl-N-(2-((methylamino)methyl)benzyl)-N-(2-oxo-2-((2′-oxo-1,1′,2′,3-tetrahydrospiro[indene-2,3′-pyrrolo[2,3-b]pyridin]-5-yl)amino)ethyl)-1-(piperazine-1-carbonyl)piperidine-4-carboxamide] belongs 13.2 nM; to `CNCc1ccccc1CN(CC(=O)Nc1ccc2c(c1)C[C@@]1(C2)C(=O)Nc2ncccc21)C(=O)C1(C)CCN(C(=O)N2CCCC2)CC1` [Example 57, (R)-4-Methyl-N-(2-((methylamino)methyl)benzyl)-N-(2-oxo-2-((2′-oxo-1,1′,2′,3-tetrahydrospiro[indene-2,3′-pyrrolo[2,3-b]pyridin]-5-yl)amino)ethyl)-1-(pyrrolidine-1-carbonyl)piperidine-4-carboxamide], 3.63 nM; to `CNCc1ccccc1CN(CC(=O)Nc1ccc2c(c1)C[C@@]1(C2)C(=O)Nc2ncccc21)C(=O)C1(C)CCN(C(C)=N)CC1` [Example 58, (R)-1-(1-Iminoethyl)-4-methyl-N-(2-((methylamino)methyl)benzyl)-N-(2-oxo-2-((2′-oxo-1,1′,2′,3-tetrahydrospiro[indene-2,3′-pyrrolo[2,3-b]pyridin]-5-yl)amino)ethyl)piperidine-4-carboxamide], 2.34 nM. In the case of `CNCc1ccccc1CN(CC(=O)Nc1ccc2c(c1)C[C@@]1(C2)C(=O)Nc2ncccc21)C(=O)C1(C)CCN(c2cccnn2)CC1` [Example 59, (R)-4-Methyl-N-(2-((methylamino)methyl)benzyl)-N-(2-oxo-2-((2′-oxo-1,1′,2′,3-tetrahydrospiro[indene-2,3′-pyrrolo[2,3-b]pyridin]-5-yl)amino)ethyl)-1-(pyridazin-3-yl)piperidine-4-carboxamide], the IC50 is 49 nM.

`CNCc1ccccc1CN(CC(=O)Nc1ccc2c(c1)C[C@@]1(C2)C(=O)Nc2ncccc21)C(=O)C1(C)CCN(c2ncccn2)CC1` [Example 60]: the IC50 is 38 nM. To `CNCc1ccccc1CN(CC(=O)Nc1ccc2c(c1)C[C@@]1(C2)C(=O)Nc2ncccc21)C(=O)C1(C)CCN(c2ccncn2)CC1` [Example 61] belongs 2.14 nM. The same measure for `CNCc1ccccc1CN(CC(=O)Nc1ccc2c(c1)C[C@@]1(C2)C(=O)Nc2ncccc21)C(=O)C1(C)CCN(c2ccccn2)CC1` [Example 62]: 77.6 nM; for `CNCc1ccccc1CN(CC(=O)Nc1ccc2c(c1)C[C@@]1(C2)C(=O)Nc2ncccc21)C(=O)C1(C)CCN(c2ccccc2)CC1` [Example 63, (R)-4-Methyl-N-(2-((methylamino)methyl)benzyl)-N-(2-oxo-2-((2′-oxo-1,1′,2′,3-tetrahydrospiro[indene-2,3′-pyrrolo[2,3-b]pyridin]-5-yl)amino)ethyl)-1-phenylpiperidine-4-carboxamide]: 14.5 nM; for `CNCc1ccccc1CN(C(=O)C1(C)CCN(C(C)=O)CC1)[C@@H](C)C(=O)Nc1ccc2c(c1)C[C@@]1(C2)C(=O)Nc2ncccc21` [Example 66, 1-Acetyl-4-methyl-N-(2-((methylamino)methyl)benzyl)-N—((S)-1-oxo-1-(((R)-2′-oxo-1,1′,2′,3-tetrahydrospiro[indene-2,3′-pyrrolo[2,3-b]pyridin]-5-yl)amino)propan-2-yl)piperidine-4-carboxamide]: 457 nM. With `CCC1(C(=O)N(CC(=O)Nc2ccc3c(c2)C[C@@]2(C3)C(=O)Nc3ncccc32)Cc2ccccc2CNC)CCNCC1` [Example 67, (R)-4-Ethyl-N-(2-((methylamino)methyl)benzyl)-N-(2-oxo-2-((2′-oxo-1,1′,2′,3-tetrahydrospiro[indene-2,3′-pyrrolo[2,3-b]pyridin]-5-yl)amino)ethyl)piperidine-4-carboxamide], the IC50 was 0.575 nM. The same measure for `CCC1(C(=O)N(CC(=O)Nc2ccc3c(c2)C[C@@]2(C3)C(=O)Nc3ncccc32)Cc2ccccc2CNC)CCN(C(C)=O)CC1` [Example 68, (R)-1-Acetyl-4-ethyl-N-(2-((methylamino)methyl)benzyl)-N-(2-oxo-2-((2′-oxo-1,1′,2′,3-tetrahydrospiro[indene-2,3′-pyrrolo[2,3-b]pyridin]-5-yl)amino)ethyl)piperidine-4-carboxamide]: 1.41 nM; for `CCC1(C(=O)N(CC(=O)Nc2ccc3c(c2)C[C@@]2(C3)C(=O)Nc3ncccc32)Cc2ccccc2CNC)CCN(C(=O)C(C)(C)C)CC1` [Example 69, 1-(2,2-Dimethylpropanoyl)-4-ethyl-N-[[2-(methylaminomethyl)phenyl]methyl]-N-[2-oxo-2-[[(3R)-2-oxospiro[1H-pyrrolo[2,3-b]pyridine-3,2′-indane]-5′-yl]amino]ethyl]piperidine-4-carboxamide]: 30.2 nM; for `CCC1(C(=O)N(CC(=O)Nc2ccc3c(c2)C[C@@]2(C3)C(=O)Nc3ncccc32)Cc2ccccc2CNC)CCN(C(=O)c2ccn(C)n2)CC1` [Example 70, (R)-4-Ethyl-1-(1-methyl-1H-pyrazole-3-carbonyl)-N-(2-((methylamino)methyl)benzyl)-N-(2-oxo-2-((2′-oxo-1,1′,2′,3-tetrahydrospiro[indene-2,3′-pyrrolo[2,3-b]pyridin]-5-yl)amino)ethyl)piperidine-4-carboxamide]: 2.24 nM. The same measure for `CCC1(C(=O)N(CC(=O)Nc2ccc3c(c2)C[C@@]2(C3)C(=O)Nc3ncccc32)Cc2ccccc2CNC)CCN(C(=O)c2cc(C)n[nH]2)CC1` [Example 71, (R)-4-Ethyl-1-(3-methyl-1H-pyrazole-5-carbonyl)-N-(2-((methylamino)methyl)benzyl)-N-(2-oxo-2-((2′-oxo-1,1′,2′,3-tetrahydrospiro[indene-2,3′-pyrrolo[2,3-b]pyridin]-5-yl)amino)ethyl)piperidine-4-carboxamide]: 8.51 nM; for `CCC1(C(=O)N(CC(=O)Nc2ccc3c(c2)C[C@@]2(C3)C(=O)Nc3ncccc32)Cc2ccccc2CNC)CCN(C(=O)C2CC2)CC1` [Example 72, (R)-1-(Cyclopropanecarbonyl)-4-ethyl-N-(2-((methylamino)methyl)benzyl)-N-(2-oxo-2-((2′-oxo-1,1′,2′,3-tetrahydrospiro[indene-2,3′-pyrrolo[2,3-b]pyridin]-5-yl)amino)ethyl)piperidine-4-carboxamide]: 8.71 nM; for `CCC1(C(=O)N(CC(=O)Nc2ccc3c(c2)C[C@@]2(C3)C(=O)Nc3ncccc32)Cc2ccccc2CNC)CCN(C(=O)C(C)C)CC1` [Example 73, (R)-4-Ethyl-1-isobutyryl-N-(2-((methylamino)methyl)benzyl)-N-(2-oxo-2-((2′-oxo-1,1′,2′,3-tetrahydrospiro[indene-2,3′-pyrrolo[2,3-b]pyridin]-5-yl)amino)ethyl)piperidine-4-carboxamide]: 14.1 nM.

Regarding `CCC1(C(=O)N(CC(=O)Nc2ccc3c(c2)C[C@@]2(C3)C(=O)Nc3ncccc32)Cc2ccccc2CNC)CCN(C(=O)COCCOCCOC)CC1` [Example 74, (R)-4-Ethyl-1-(2-(2-(2-methoxyethoxy)ethoxy)acetyl)-N-(2-((methylamino)methyl)benzyl)-N-(2-oxo-2-((2′-oxo-1,1′,2′,3-tetrahydrospiro[indene-2,3′-pyrrolo[2,3-b]pyridin]-5-yl)amino)ethyl)piperidine-4-carboxamide], the IC50 was 8.71 nM.

Turning to `CCC1(C(=O)N(CC(=O)Nc2ccc3c(c2)C[C@@]2(C3)C(=O)Nc3ncccc32)Cc2ccccc2CNC)CCN(C(=O)C2CCCC2)CC1` [Example 75, (R)-1-(Cyclopentanecarbonyl)-4-ethyl-N-(2-((methylamino)methyl)benzyl)-N-(2-oxo-2-((2′-oxo-1,1′,2′,3-tetrahydrospiro[indene-2,3′-pyrrolo[2,3-b]pyridin]-5-yl)amino)ethyl)piperidine-4-carboxamide], the IC50 was 5.75 nM. The same measure for `CCC1(C(=O)N(CC(=O)Nc2ccc3c(c2)C[C@@]2(C3)C(=O)Nc3ncccc32)Cc2ccccc2CNC)CCN(C(=O)c2ccc(F)cn2)CC1` [Example 76, (R)-4-Ethyl-1-(5-fluoropicolinoyl)-N-(2-((methylamino)methyl)benzyl)-N-(2-oxo-2-((2′-oxo-1,1′,2′,3-tetrahydrospiro[indene-2,3′-pyrrolo[2,3-b]pyridin]-5-yl)amino)ethyl)piperidine-4-carboxamide]: 37.2 nM.

The record behind these values is patent publication US20230036854A1, “HETEROCYCLIC SPIRO-COMPOUNDS AS AM2 RECEPTOR INHIBITORS” (THE UNIVERSITY OF SHEFFIELD, priority 2018, published 2023).
